Results: US12240921B2, “Peptides” (priority 2022, dated 2025)
Starred links: 1 amine or outer side, 2 acyl side, 3 side chain; linkers in the order of their positions; H or OH if unused. Groups on a side chain read outwards from the residue. No end group written: not given here. *: point of attachment. C18 diacid = O=C(O)CCCCCCCCCCCCCCCCC(=O)*; γGlu = O=C(O)[C@H](CCC(=O)[*:2])N[*:1]; AEEA = NCCOCCOCC(=O)O

Columns and labels:
[1] = test system: Wistar Kyoto rats; experiment: Wistar Kyoto (WKY) rat model of depression: EEG/EMG sleep-wake recording; type: in vivo; conditions: single injection, 0-3 h post dosing
Procedure: Ketamine (10 mg/kg), a N-methyl-D-aspartate-receptor antagonist, was used as positive control. All rats received all treatments 2 h after light onset in a pseudo randomized crossover fashion with a minimum period of 3 days between treatments. The rats were placed individually in recording boxes, and sleep-wake behaviour was recorded for 24 h. EEG/EMG signals were amplified, analogue filtered (0.5-100 Hz), digitized (500 Hz), and then digitally filtered (EEG: 0.5-100 Hz and EMG: 70-100 Hz). EEG/EMG recordings were semi-automatically scored as wake, non-REM (NREM) sleep, or REM sleep in 10 s epochs using SleepSign. Sleep stages were defined as below: […]

[2] = test system: BDNF; experiment: In vivo efficacy in wild-type mice, single SC dose: BDNF levels (western blotting); design: species or system mouse; conditions: single SC dose: LLP11 21 mg/kg, LLP12 26 mg/kg, CLP11 21 mg/kg; 4 and 8 hours
Procedure: 4 and 8 hour timepoints were chosen.
4-hour timepoint were chosen.

Molecule | REM & NREM sleep [1] | time spent awake (wakefulness) [1] | BDNF levels in vivo [2]
CNC1(c2ccccc2Cl)CCCCC1=O (stereo not drawn) [ketamine] | at the expense of REM & NREM sleep | increased time spent awake | –
LLP12: Linear lipidated peptide K*EQEMTEPVEHEEDV-NH2, * = C18DA-γGlu-OEG-OEG- (K([AEEA-AEEA-γGlu-C18 diacid])EQEMTEPVEHEEDV-NH2; N-terminus assumed; SMILES CSCC[C@H](NC(=O)[C@H](CCC(=O)O)NC(=O)[C@H](CCC(N)=O)NC(=O)[C@H](CCC(=O)O)NC(=O)[C@@H](N)CCCCNC(=O)COCCOCCNC(=O)COCCOCCNC(=O)CC[C@H](NC(=O)CCCCCCCCCCCCCCCCC(=O)O)C(=O)O)C(=O)N[C@H](C(=O)N[C@@H](CCC(=O)O)C(=O)N1CCC[C@H]1C(=O)N[C@H](C(=O)N[C@@H](CCC(=O)O)C(=O)N[C@@H](Cc1c[nH]cn1)C(=O)N[C@@H](CCC(=O)O)C(=O)N[C@@H](CCC(=O)O)C(=O)N[C@@H](CC(=O)O)C(=O)N[C@H](C(N)=O)C(C)C)C(C)C)[C@@H](C)O) | – | – | increase BDNF in vivo
